Results from patent publication US20210100777A1, “HEAT SHOCK PROTEIN (HSP) INHIBITION AND MONITORING EFFECTIVENESS THEREOF” (H. LEE MOFFITT CANCER CENTER AND RESEARCH INSTITUTE, INC., priority 2013, published 2021).
Entries after “also recorded” stand apart in the source; their conditions may differ.

How the values were obtained:
[1] = test system: HSPs in RPMI-8226 cells; experiment: DI-MRM relative quantification of HSPs after 17-DMAG (Example 2); type: cell-based, human; details: RPMI-8226, 100 nM
Procedure: Synthesis and DI MRM of Standard Peptides. Standard peptides were synthesized and characterized as described previously (Remily-Wood et al., Proteomics Clin. Appl. 5:383-96 (2011)). An automated chip-based nanoelectrospray ion source, (NanoMate100, Advion BioSciences, Ithaca, N.Y.), was mounted on a triple quadrupole mass spectrometer (TSQ Vantage, Thermo, San Jose, Calif.). […] (SEQ ID NO:17) were diluted to 1 μM in 50% aqueous ACN with 0.1% formic acid. For synthetic peptide infusion, the spray voltage was tuned between 1.5 and 1.9 kV for stable ion signal. The gas pressure was set to 0.3 psi. Data were acquired at 20 ms per transition for 2 minutes using m/z 0.002 scan widths. The quadrupole resolution values were modulated from 0.2 to 0.7.
Standard Protein DI-MRM. As described below, a dilution series of BSA digest was created in 50% aqueous acetonitrile with 0.1% formic acid spiked with five synthetic peptide standards (20 nM). In DI-MRM, the spray voltage was set to 1.6 kV, and the gas pressure was set to 0.3 psi. Peptide selection was performed using Q1=0.4; fragment ion selection was performed using Q3=0.7. Transitions (n=36) were monitored for 20 ms each with scan width set to 0.002; data were acquired for 5 minutes.
Cell Culture, Lysis, and HSP Sample Preparation for Mass Spectrometry. RPMI-8226 and 8226/LR5 cells were maintained as previously described (Bellamy et al., Cancer Res. 51:995-1002 (1991); Remily-Wood et al., Proteomics Clin. Appl. 5:383-96 (2011)). The heat shock protein 90 inhibitor, 17-desmethoxy-17-N,N-dimethylaminoethylamino-geldanamycin (17-DMAG), was dissolved in DMSO (100 μM stock). Based on prior IC50 measurements, the RPMI-8226 cells were treated with 100 nM 17-DMAG for 24 hours, and 8226/LR5 cells were treated with 50 nM 17-DMAG. Cells (n=10^6) were lysed using in aqueous 100 mM ammonium bicarbonate containing 8M urea for protein denaturation. Protein concentrations were measured by Bradford assays; consistent aliquots of total protein (380 ng) were injected for LC-MRM, and the same solutions were used for DI-MRM. Digestion, addition of SIS peptides, and mass spectrometry sample preparation were performed as described for standard proteins.
Calculation of Correction Factors to Account for Interference in DI MRM. […] To evaluate the ability to eliminate these contributions, correction factors were calculated based on LC-MRM data using the following set of equations (Equations 1 and 2): […]

[2] = test system: vemurafenib sensitive and naïve cell lines; experiment: Cell cycle analysis, propidium iodide flow cytometry; type: cell-based; details: 300 nM, 24 hours
Procedure: FIGS. 15A, 15B, 15C, 15D, 15E, 15F, and 15G show the HSP90 inhibitor XL888 blocks the growth and survival of melanoma cell lines with diverse mechanisms of vemurafenib resistance. FIGS. 15A and 15B are graphs showing growth (%) of matched pairs of vemurafenib naïve and resistant melanoma cell lines and melanoma cell lines with intrinsic resistance. In FIG. 15A, cells were treated with increasing concentrations of vemurafenib (1 nM-10 μM: 72 hrs) before being subject to the MTT assay. […] FIGS. 15C to 15E are bar graphs showing the cell cycle effects of XL888 (300 nM: 24 hours) upon vemurafenib sensitive and naïve cell lines. Cells were fixed, stained with propidium iodide and distributions analyzed by flow cytometry. FIG. 15F-G are bar graphs showing that XL888 induced apoptosis in every model of acquired vemurafenib resistance tested. Cells were treated for either 72 or 144 hours with XL888 (300 nM) followed by Annexin-V. Apoptosis was measured by flow cytometry.

[3] = test system: vemurafenib resistant melanoma cell lines grown as 3D collagen implanted spheroids; experiment: 3D spheroid assay; type: cell-based; details: 1 μM, 144 hours
Procedure: 3D spheroid assays. Melanoma spheroids were prepared using the liquid overlay method (Smalley et al. Mol Cancer Ther. 5: 1136-1144 (2006)). Spheroids were treated for 144 hours with either vehicle or 1 μM XL888 before being washed (3 times in media) and treated with calcein-AM and ethidium bromide (Molecular Probes, Eugene, Oreg.) for 1 hour at 37° C., to according to the manufacturer's instructions. Pictures of the invading spheroids were taken using a Nikon-300 inverted fluorescence microscope.

[4] = test system: M229R xenografts; experiment: Xenograft experiment; type: in vivo, BALB SCID mice; details: 100 mg/kg, PO, 3× week, 15 days
Procedure: Xenograft experiments. BALB SCID mice (The Jackson Laboratory, Bar Harbor, Me.) were subcutaneously injected with 2.5×10^6 cells per mouse (resuspended in 111 μL L-15 media, 10 mM HEPES, 37.5 μL Matrigel). Tumors were grown to approximately 100 mm^3 prior to dosing. Mice were treated with either 100 mg XL888/kg (n=5) or an equivalent volume of vehicle (10 mM HCl), 3 times per week by oral gavage. Mouse weights and tumor volumes (L×W2/2) were measured 3 times per week. Upon completion of the experiment, vehicle and drug treated tumor biopsies were processed for LC-MRM analysis (as above).

[5] = 24 hrs vs. control, all LC-MRM transitions, interference-corrected
[6] = 24 hrs vs. control, noise corrected, only transitions below 40% interference

SMILES: CO[C@H]1/C=C\C=C(/C)C(=O)NC2=CC(=O)C(NCCN(C)C)=C(C[C@@H](C)C[C@H](OC)[C@H](O)[C@@H](C)/C=C(\C)[C@@H]1OC(N)=O)C2=O [17-DMAG, 17-Dimethylaminoethylamino-17-demethoxygeldanamycin]
- HSP90α Fold Change, DI-MRM ([1]; 24 hrs after treatment vs. control, ALLFVPR y3-y6 (All LC-MRM Transitions)): 1.86
- CDC37 Fold Change, DI-MRM [1, 5]: 1.08
- HS90A Fold Change, DI-MRM [1, 5]: 1.86
- HS90B Fold Change, DI-MRM [1, 5]: 1.46
- HSP7C Fold Change, DI-MRM [1, 5]: 1.52
- HSP7E Fold Change, DI-MRM [1, 5]: 0.87
- HSP71 Fold Change, DI-MRM [1, 5]: 6.10
- HSP74 Fold Change, DI-MRM [1, 5]: 1.22
- HSPA5 Fold Change, DI-MRM [1, 5]: 3.43
- CDC37 Fold Change, DI-MRM [1, 6]: 1.20
- HS90A Fold Change, DI-MRM [1, 6]: 1.85
- HS90B Fold Change, DI-MRM [1, 6]: 1.46
- HSP7C Fold Change, DI-MRM [1, 6]: 1.84
- HSP7E Fold Change, DI-MRM [1, 6]: 0.81
- HSP71 Fold Change, DI-MRM [1, 6]: 6.10
- HSP74 Fold Change, DI-MRM [1, 6]: 1.37
- HSPA5 Fold Change, DI-MRM [1, 6]: 2.53
- HSP90α Fold Change, DI-MRM ([1]; 24 hrs vs. control, y3 (Least Interference)): 2.96
- HSP90α Fold Change, DI-MRM ([1]; 24 hrs vs. control, y3-y5 (DI-MRM Interference-Corrected)): 1.85
- HSP90α Fold Change, DI-MRM ([1]; 24 hrs vs. control, y3-y5 (Selected Transitions)): 1.85
- HSP90α Fold Change, DI-MRM ([1]; 24 hrs vs. control, y3-y6 (DI-MRM Interference-Corrected)): 1.87

SMILES: CC[C@@H](C)Nc1cc(C(=O)N[C@@H]2C[C@H]3CC[C@@H](C2)N3c2ccc(C(=O)C3CC3)cn2)c(C)cc1C(N)=O [XL888, 5-((R)-sec-butylamino)-N1-((1R,3s,5S)-8-(5-(cyclopropanecarbonyl)pyridin-2-yl)-8-azabicyclo[3.2.1]octan-3-yl)-2-methylterephthalamide]
- cell cycle effect ([2]; WM164, M229, M229R, M249, M249R, 1205Lu, WM39): G1-phase cell cycle arrest
- cell cycle effect ([2]; WM164R, 1205LuR, RPMI 7951): G2/M phase cell cycle arrest
- cell death in 3D spheroids [3]: effective at inducing cell death
- regression of established M229R xenografts [4]: significantly induce the regression; also recorded: significant levels of tumor regression
